Counter-ions that a name gives are not always drawn. Like-named read-outs stand apart in the source and are kept apart here.
Assays:
cells = details: Homo sapiens, DLD-1, 240 h
[1] = target: T1, helicase domain of the Pol θ protein (Homo sapiens, UniProt O75417); assay: Biochemical Activity Assay (ADP Glo Assay) of Pol θ inhibitor, ATPase activity
T1 construct: The helicase domain of the Pol θ protein was purified from insect protein expression system; made in house; host or cells: insect protein expression system
T1 sequence (O75417 102-554 limits assumed): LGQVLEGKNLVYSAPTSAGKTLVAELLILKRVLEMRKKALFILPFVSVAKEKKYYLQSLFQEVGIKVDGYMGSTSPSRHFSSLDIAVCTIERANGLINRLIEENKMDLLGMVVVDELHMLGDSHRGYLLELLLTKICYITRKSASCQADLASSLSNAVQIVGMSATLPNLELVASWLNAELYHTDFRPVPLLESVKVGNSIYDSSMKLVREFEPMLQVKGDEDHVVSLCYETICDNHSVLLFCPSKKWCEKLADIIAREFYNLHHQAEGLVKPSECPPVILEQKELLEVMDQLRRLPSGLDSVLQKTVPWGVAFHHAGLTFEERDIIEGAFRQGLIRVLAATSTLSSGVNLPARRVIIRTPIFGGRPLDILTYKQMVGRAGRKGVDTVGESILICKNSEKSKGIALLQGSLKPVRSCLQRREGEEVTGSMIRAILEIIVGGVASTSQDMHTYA

[2] = read-out: Cell viability assay IC50 (nM), CTG assay, CellTiter Glo, read on Day 10, cell line not given
[3] = ADP-Glo assay, ATPase activity of Pol θ helicase domain, ssDNA substrate, read-out: Biochemical assay IC50
[4] = read-out: Cell viability assay IC50 (nM)
[5] = read-out: Biochemical assay IC50

Structure (SMILES) | IC50 [1, 3] [nM] | IC50 (cells; [2]) [nM] | IC50 (cells; [4]) [nM] | IC50 ([1]; Biochemical assay IC50 (nM)) [nM] | IC50 [1, 5] [nM]
COc1cnc(Cl)cc1-c1cc(C)ncc1C(=O)Nc1nc2cc3c(cc2s1)N(c1ccnn1C)CCO3 [Example 194, 2'-chloro-5'-methoxy-6-methyl-N-(8-(1-methyl-1H-parazol-5-yl)-7,8-dihydro-6H-thiazolo[5',4':4,5]benzo[1,2-b][1,4]oxazin-2-yl)-[4,4'-bipyridine]-3-carboxamide] | – | – | 65.6 | 22.9 | –
COc1cnc(Cl)cc1-c1cc(C)ncc1C(=O)Nc1nc2cnc(N3CCC(NS(C)(=O)=O)CC3)cc2s1 [Example 195] | – | – | 34.2 | 6.18 | –
COc1cnc(C(F)F)cc1-c1cc(C)ncc1C(=O)Nc1nc2cnc(N3CCC(O)CC3)nc2s1 [Example 198] | – | – | 23.3 | – | 4.23
COc1cnc(C(F)F)cc1-c1cc(C)ncc1C(=O)Nc1nc2cnc(N3CCCCC3=O)nc2s1 [Example 201, 2'-(difluoromethyl)-5'-methoxy-6-methyl-N-(5-(2-oxopiperidin-1-yl)thiazolo[5,4-d]pyrimidin-2-yl)-[4,4'-bipyridine]-3-carboxamide] | 5.24 | 224 | – | – | –
COc1cnc(Cl)cc1-c1cc(C)ncc1C(=O)Nc1nc2cnc(-c3nnc(C)o3)cc2s1 [Example 206] | 2.36 | 13.6 | – | – | –
COc1cnc(Cl)cc1-c1cc(C)ncc1C(=O)Nc1nc2cnc(-c3c(C)nnn3C3CC3)cc2s1 [Example 214] | – | – | 27 | – | 6.71
COc1cnc(C(F)F)cc1-c1cc(C)ncc1C(=O)Nc1nc2cnc(-c3c(C)nnn3C)c(F)c2s1 [Example 215, 2'-(difluoromethyl)-N-(6-(1,4-dimethyl-1H-1,2,3-triazol-5-yl)-7-fluorothiazolo[4,5-c]pyridin-2-yl)-5'-methoxy-6-methyl-[4,4'-bipyridine]-3-carboxamide] | 3.11 | 2.92 | – | – | –
COc1cnc(C(F)F)cc1-c1cc(C)ncc1C(=O)Nc1nc2cnc(-c3nncn3C)cc2s1 [Example 218] | – | – | 656 | 31.1 | –
COc1cnc(Cl)cc1-c1cc(C)ncc1C(=O)Nc1nc2cnc(-c3c(C)cnn3CCN(C)C)cc2s1 [Example 219, 2'-chloro-N-(6-(1-(2-(dimethylamino)ethyl)-4-methyl-1H-parazol-5-yl)thiazolo[4,5-c]pyridin-2-yl)-5'-methoxy-6-methyl-[4.4'-bipyridine]-3-carboxamide trifluoroacetate] | – | – | 63.1 | 3.31 | –
COc1cnc(Cl)cc1-c1cc(C)ncc1C(=O)Nc1nc2ccc(-c3c(C)nnn3C)cc2s1 [Example 222, 2'-chloro-N-(6-(1,4-dimethyl-1H-1,2,3-triazol-5-yl)benzo[d]lthiazol-2-yl)-5'-methoxy-6-methyl-[4.4'-bipyridine]-3-carboxamide] | – | – | 9.62 | 4.36 | –
COc1cnc(Cl)cc1-c1cc(C)ncc1C(=O)Nc1nc2cc3c(cc2s1)C(=O)N(C)CCC3 [Example 225, 2'-chloro-5'-methoxy-6-methyl-N-(6-methyl-5-oxo-6,7,8,9-tetrahydro-5H-thiazolo[4',5': 4,5]benzo[1,2-c]aza-2-yl)-[4,4'-bipyridine]-3-carboxamide] | – | – | 56.2 | 21.1 | –
COc1cnc(Cl)cc1-c1cc(C)ncc1C(=O)Nc1nc2cnc(-c3c(C(F)F)nnn3C)cc2s1 [Example 226, 2'-chloro-N-(6-(4-(difluoromethyl)-1-methyl-1H-1,2,3-triazol-5-yl)thiazolo[4,5-c]pyridin-2-yl)-5'-methoxv-6-methyl-[4.4'-bipyridine]-3-carboxamide] | – | – | 8.46 | 4.02 | –

Continued, in another order:

IC50 [1, 3] [nM] | Structure (SMILES) | IC50 (cells; [2]) [nM] | IC50 (cells; [4]) [nM] | IC50 ([1]; Biochemical assay IC50 (nM)) [nM] | IC50 [1, 5] [nM]
103 | COc1cnc(Cl)cc1-c1cc(C)ncc1C(=O)Nc1nc2c(s1)CN(Cc1ccncc1)CC2 [Example 192, 2'-chloro-5'-methoxy-6-methyl-N-(5-(pyridin-4-ylmethyl)-4,5,6,7-tetrahydrothiazolo[5,4-c]pyridin-2-yl)-[4,4'-bipyridine]-3-carboxamide] | 4820 | – | – | –
11.7 | COc1cnc(Cl)cc1-c1cc(N2CCN(C)C3(CC3)C2=O)ncc1C(=O)Nc1nc2cnc(-c3c(C)nnn3C)cc2s1 [Example 196, 2'-chloro-N-(6-(1,4-dimethyl-1H-1,2,3-triazol-5-yl)thiazolo[4,5-c]pyridin-2-yl)-5'-methoxy-6-(4-methyl-8-oxo-4,7-diazaspiro[2.5]oct-7-yl)-[4,4'-bipyridine]-3-carboxamide] | 3.83 | – | – | –
7.82 | COc1cnc(C(F)F)cc1-c1cc(C)ncc1C(=O)Nc1nc2cnc(N3CC4(CC(O)C4)C3)nc2s1 [Example 199] | 31.6 | – | – | –
6.51 | COc1cnc(Cl)c(F)c1-c1cc(C)ncc1C(=O)Nc1nc2cnc(N3CCC(O)CC3)nc2s1 [Example 200] | 7.07 | – | – | –
6.11 | COc1cnc(Cl)cc1-c1cc(C)ncc1C(=O)Nc1nc2ccc(N3CCOCC3=O)nc2s1 [Example 202] | 38.8 | – | – | –
8.57 | COc1cnc(C(F)F)cc1-c1cc(C)ncc1C(=O)Nc1nc2cnc(N3CCOCC3=O)nc2s1 [Example 204] | 541 | – | – | –
5.24 | COc1cnc(Cl)cc1-c1cc(C)ncc1C(=O)Nc1nc2cnc(-c3ncco3)cc2s1 [Example 205, 2'-chloro-5'-methoxy-6-methyl-N-(6-(oxazol-2-yl)thiazolo[4,5-c]pyridin-2-yl)-[4,4'-bipyridine]-3-carboxamide] | 20 | – | – | –
36.3 | COc1cnc(Cl)cc1-c1cc(C)ncc1C(=O)Nc1nc2cnc(-c3nnnn3C)cc2s1 [Example 208] | 141 | – | – | –
1.93 | COc1cnc(Cl)cc1-c1cc(C)ncc1C(=O)Nc1nc2cnc(-c3nnn(C)n3)cc2s1 [Example 209] | 6.82 | – | – | –
2.43 | COc1cnc(Cl)c(F)c1-c1cc(C)ncc1C(=O)Nc1nc2cnc(-c3c(C)cnn3C)cc2s1 [Example 210] | < 1.52 | – | – | –
2.51 | COc1cnc(Cl)c(F)c1-c1cc(C)ncc1C(=O)Nc1nc2cnc(-c3c(C)noc3C)cc2s1 [Example 211] | 3.28 | – | – | –
3.48 | COc1cnc(Cl)cc1-c1cc(C)ncc1C(=O)Nc1nc2cnc(-c3c(C)cnn3C(C)C)cc2s1 [Example 212] | 2.23 | – | – | –
3.63 | COc1cnc(C(F)F)cc1-c1cc(C)ncc1C(=O)Nc1nc2cnc(-c3c(C)nnn3C3CC3)cc2s1 [Example 213, N-(6-(1-cyclopropyl-4-methyl-1H-1,2,3-triazol-5-yl)thiazolo[4,5-c]pyridin-2-yl)-2'-(difluoromethyl)-5'-methoxy-6-methyl-[4,4'-bipyridine]-3-carboxamide] | 4.13 | – | – | –
2.51 | COc1cnc(Cl)cc1-c1cc(C)ncc1C(=O)Nc1nc2cnc(-c3c(C)cnn3CCO)cc2s1 [Example 220] | 22.2 | – | – | –
4.78 | COc1cnc(Cl)cc1-c1cc(C)ncc1C(=O)Nc1nc2cnc(-c3nn(CCO)cc3C)cc2s1 [Example 221] | 1850 | – | – | –
2.51 | COc1cnc(C(F)F)cc1-c1cc(C)ncc1C(=O)Nc1nc2ccc(-c3c(C)nnn3C)cc2s1 [Example 223] | 10 | – | – | –
3.98 | COc1cnc(Cl)c(F)c1-c1cc(C)ncc1C(=O)Nc1nc2ccc(-c3c(C)nnn3C)cc2s1 [Example 224] | 3.16 | – | – | –
